Entries after “also recorded” stand apart in the source; their conditions may differ.
What was measured:
[1] = target: T1, GluR6a (Rattus norvegicus, UniProt P42260); experiment: Whole-cell patch clamp recordings, transfected HEK-293-T/17 cells, Example 2; assay type: cell-based; settings: for agonist activity: analog-evoked currents from GluR6a receptors (words): 1 s test application of the analog at a high concentration (50-100 μM)
T1 construct: expressed in transfected cells; host or cells: HEK-293-T/17
T1 sequence (P42260 32-908): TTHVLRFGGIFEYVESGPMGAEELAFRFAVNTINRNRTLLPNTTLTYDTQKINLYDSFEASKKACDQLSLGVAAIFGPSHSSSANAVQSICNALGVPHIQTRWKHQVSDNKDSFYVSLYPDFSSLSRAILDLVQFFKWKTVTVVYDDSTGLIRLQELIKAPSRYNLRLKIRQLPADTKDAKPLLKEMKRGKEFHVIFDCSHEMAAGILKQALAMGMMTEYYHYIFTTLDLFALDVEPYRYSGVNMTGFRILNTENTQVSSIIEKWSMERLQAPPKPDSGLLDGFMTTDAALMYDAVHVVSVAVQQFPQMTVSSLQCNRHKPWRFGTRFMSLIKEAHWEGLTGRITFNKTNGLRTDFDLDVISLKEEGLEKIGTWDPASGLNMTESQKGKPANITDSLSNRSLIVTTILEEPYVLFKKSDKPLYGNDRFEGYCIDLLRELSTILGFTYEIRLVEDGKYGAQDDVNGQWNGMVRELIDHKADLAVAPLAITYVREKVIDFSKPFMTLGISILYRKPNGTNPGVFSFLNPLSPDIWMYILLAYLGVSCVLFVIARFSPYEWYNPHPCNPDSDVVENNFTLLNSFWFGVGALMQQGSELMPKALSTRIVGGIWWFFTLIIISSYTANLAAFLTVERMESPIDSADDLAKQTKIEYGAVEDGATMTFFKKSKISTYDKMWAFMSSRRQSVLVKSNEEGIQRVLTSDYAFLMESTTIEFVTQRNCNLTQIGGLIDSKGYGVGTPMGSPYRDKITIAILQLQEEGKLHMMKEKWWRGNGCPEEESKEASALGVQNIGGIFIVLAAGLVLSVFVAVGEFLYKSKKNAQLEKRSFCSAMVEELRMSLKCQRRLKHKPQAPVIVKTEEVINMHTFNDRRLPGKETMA
Protocol: (§1) Cell Culture and Electrophysiology. HEK-293-T/17 cells were maintained in Dulbecco's modified Eagle's medium (DMEM) supplemented with 100 μg/mL penicillin, 100 μg/mL streptomycin, and 10% heat inactivated fetal bovine serum. One day before transfection, HEK-T/17 cells were plated at low density on glass coverslips coated with 100 μg/ml poly-D-lysine and 100 μg/ml collagen. Cells were transfected with receptor cDNAs ([…]) in combination with enhanced green fluorescent protein (eGFP) cDNA for visualization of transfected cells. Transfections were carried out with Fugene6 (Roche Applied Science) according to the manufacturer's protocol and used 2-3 days following transfection. Internal solution consisted of 110 mM CsF, 30 mM CsCl, 4 mM NaCl, 0.5 mM CaCl2, 10 mM HEPES, and 5 mM EGTA, and was adjusted to pH=7.3 with CsOH. The external solution contained 150 mM NaCl, 2.8 mM KCI, 2 mM CaCl2, 1 mM MgCl2, and 10 mM HEPES, adjusted to pH=7.3 with NaOH. Patch electrodes from thick-walled borosilicate glass (Warner Instruments, Hamden, Conn.) were pulled to a final resistance of 1.5 to 2.5 MO after fire polishing. […] To determine the pre-desensitization IC50 of selected analogs, several control glutamate (10 mM) applications were followed by a 2.5 minute application of various concentrations of 8-deoxy-neoDH, 9-deoxy-neoDH, or MSVIII-19, after which the analogs were co-applied with glutamate. A similar protocol was followed to measure the recovery of glutamate-evoked currents, with the exception that the analogs were not co-applied with glutamate. Whole cell patch clamp recordings were carried out using an Axopatch 200B amplifier (Axon Instruments). Data were analyzed with Origin 7.5 (OriginLab Corp.), and Prism4 (GraphPad Software Inc.); inhibition-response curves were plotted and fit with a one-site competition curve constrained to fixed minima (0) and maxima (100).
(§2) The pharmacological activities of the C2/C4 epimers were determined in patch-clamp assays with GluR5-2a or GluR6a KARs as well as GluR4(i) AMPA receptors.
(§3) 30 μM 2,4-epi-neoDH reduced glutamate-induced currents from GluR5-2a receptors by −70% while the same concentration reduced glutamate-induced currents from GluR6a receptors by −30% (FIG. 13A). […] We noted that the data derived from recording of the GluR5-2a receptor was poorly fit by the single component logistic curve, particularly at the lower concentrations. This inconsistency may arise from inter-subunit or inter-dimer cooperativity in the inhibitory activity or may be an apparent artifact resulting from run-down of the GluR5-2a receptor currents.

[2] = target: T2, GluR4(i) AMPA receptors (Rattus norvegicus, UniProt P19493); experiment: as above; assay type: cell-based; settings: 300 μM analog
T2 construct: expressed in transfected cells; host or cells: HEK-293-T/17
T2 sequence (P19493 22-902 isoform P19493-2 limits assumed): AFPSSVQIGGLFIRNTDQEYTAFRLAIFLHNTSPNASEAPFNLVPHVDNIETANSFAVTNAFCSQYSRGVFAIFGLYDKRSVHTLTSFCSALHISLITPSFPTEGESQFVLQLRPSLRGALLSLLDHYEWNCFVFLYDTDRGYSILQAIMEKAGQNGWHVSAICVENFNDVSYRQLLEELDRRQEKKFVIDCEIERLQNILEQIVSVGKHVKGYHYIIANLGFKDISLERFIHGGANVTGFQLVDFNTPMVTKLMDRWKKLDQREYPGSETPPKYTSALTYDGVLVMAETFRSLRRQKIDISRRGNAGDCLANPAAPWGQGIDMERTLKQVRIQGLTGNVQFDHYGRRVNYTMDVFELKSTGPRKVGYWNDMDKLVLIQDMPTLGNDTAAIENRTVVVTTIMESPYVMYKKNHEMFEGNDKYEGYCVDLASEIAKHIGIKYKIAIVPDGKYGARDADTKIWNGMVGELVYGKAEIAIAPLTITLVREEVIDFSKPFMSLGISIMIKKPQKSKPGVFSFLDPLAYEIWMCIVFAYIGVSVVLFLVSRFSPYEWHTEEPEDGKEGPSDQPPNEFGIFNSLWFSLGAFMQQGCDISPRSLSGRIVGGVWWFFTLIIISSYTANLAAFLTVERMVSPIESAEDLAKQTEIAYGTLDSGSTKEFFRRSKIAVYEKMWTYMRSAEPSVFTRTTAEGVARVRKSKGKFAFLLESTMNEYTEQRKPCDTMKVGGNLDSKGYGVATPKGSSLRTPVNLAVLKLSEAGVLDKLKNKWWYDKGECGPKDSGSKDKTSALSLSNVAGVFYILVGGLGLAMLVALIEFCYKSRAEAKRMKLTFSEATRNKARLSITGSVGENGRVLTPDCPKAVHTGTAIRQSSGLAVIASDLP
Protocol: as §1, §2, §3

[3] = test system: mice; experiment: Seizure (convulsant) activity after i.c.v. injection; assay type: in vivo
[4] = target: T3, GluR5-2b (Rattus norvegicus, UniProt P22756); experiment: Radioligand binding ([3H]kainate displacement), Example 2
T3 construct: expressed in transfected cells; host or cells: HEK-293-T/17
T3 sequence (P22756 31-905 isoform P22756-2 limits assumed): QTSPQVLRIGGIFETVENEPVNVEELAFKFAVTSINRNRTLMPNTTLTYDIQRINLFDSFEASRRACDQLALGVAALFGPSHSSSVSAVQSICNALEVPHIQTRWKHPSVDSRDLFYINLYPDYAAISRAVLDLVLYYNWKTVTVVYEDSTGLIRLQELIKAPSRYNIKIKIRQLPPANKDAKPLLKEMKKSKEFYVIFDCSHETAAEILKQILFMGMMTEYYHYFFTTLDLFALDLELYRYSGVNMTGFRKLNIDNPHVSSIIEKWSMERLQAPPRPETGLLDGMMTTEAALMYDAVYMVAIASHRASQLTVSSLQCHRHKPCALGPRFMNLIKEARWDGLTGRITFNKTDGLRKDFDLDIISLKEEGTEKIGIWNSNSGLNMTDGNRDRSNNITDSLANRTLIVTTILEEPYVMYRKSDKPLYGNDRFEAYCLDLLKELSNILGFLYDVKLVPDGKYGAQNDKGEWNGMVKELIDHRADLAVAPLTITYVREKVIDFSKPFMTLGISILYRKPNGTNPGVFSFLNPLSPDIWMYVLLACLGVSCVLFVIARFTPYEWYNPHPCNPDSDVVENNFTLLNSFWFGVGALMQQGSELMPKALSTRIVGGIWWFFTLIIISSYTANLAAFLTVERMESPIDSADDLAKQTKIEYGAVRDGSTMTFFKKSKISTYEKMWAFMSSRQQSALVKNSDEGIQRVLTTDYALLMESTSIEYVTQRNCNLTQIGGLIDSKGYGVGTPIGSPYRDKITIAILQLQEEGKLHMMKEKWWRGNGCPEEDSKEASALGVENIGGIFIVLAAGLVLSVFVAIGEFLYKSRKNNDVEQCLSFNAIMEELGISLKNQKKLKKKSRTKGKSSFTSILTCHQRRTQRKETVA
Protocol: Radioligand binding. Membrane preparations from HEK-293-T/17 cells were prepared and used in radioligand binding assays as described previously (Sanders et al., 2005). Unlabeled analogs were used to displace [3H]kainate (10-20 nM, PerkinElmer Life and Analytical Sciences, Boston, Mass.) or [3H]AMPA (20 nM, PerkinElmer Life and Analytical Sciences, Boston, Mass.) from KARs and AMPARs, respectively. Nonspecific binding was determined in the presence of 1 mM glutamate. After 1 hour incubation at 4° C., samples were harvested by rapid filtration onto Whatman GF/C membranes. Upon addition of scintillation fluid, membranes were incubated for 1 hour at room temperature. A Beckman LS5000TD scintillation counter was used for quantification (Beckman Coulter Inc., Fullerton, Calif.). Data were plotted and fit with a one-site competition curve with fixed minima and maxima using Prism 4 (GraphPad Software, Inc). Ki's were calculated with the Cheng-Prusoff equation using the determined IC5o values and the radioligand Kd. Data were plotted and fit with a one-site competition curve with fixed minima (0) and maxima (100) (Prism4, GraphPad Software, Inc.). […]
The pharmacological profiles of the Group I analogs, 8-deoxy-neoDH and 9-deoxyneoDH, were analyzed initially in radioligand binding experiments with expressed recombinant AMPA and kainate receptor subunits. […]

[5] = target: T4, GluR5-2a (Rattus norvegicus, UniProt P22756, DEL402-416); settings: Sanders et al., 2005; cited from earlier work
T4 construct: expressed in transfected cells; host or cells: HEK-293-T/17
T4 sequence (P22756 with tags, fused parts or gaps isoform P22756-2 limits assumed, stated change not applied): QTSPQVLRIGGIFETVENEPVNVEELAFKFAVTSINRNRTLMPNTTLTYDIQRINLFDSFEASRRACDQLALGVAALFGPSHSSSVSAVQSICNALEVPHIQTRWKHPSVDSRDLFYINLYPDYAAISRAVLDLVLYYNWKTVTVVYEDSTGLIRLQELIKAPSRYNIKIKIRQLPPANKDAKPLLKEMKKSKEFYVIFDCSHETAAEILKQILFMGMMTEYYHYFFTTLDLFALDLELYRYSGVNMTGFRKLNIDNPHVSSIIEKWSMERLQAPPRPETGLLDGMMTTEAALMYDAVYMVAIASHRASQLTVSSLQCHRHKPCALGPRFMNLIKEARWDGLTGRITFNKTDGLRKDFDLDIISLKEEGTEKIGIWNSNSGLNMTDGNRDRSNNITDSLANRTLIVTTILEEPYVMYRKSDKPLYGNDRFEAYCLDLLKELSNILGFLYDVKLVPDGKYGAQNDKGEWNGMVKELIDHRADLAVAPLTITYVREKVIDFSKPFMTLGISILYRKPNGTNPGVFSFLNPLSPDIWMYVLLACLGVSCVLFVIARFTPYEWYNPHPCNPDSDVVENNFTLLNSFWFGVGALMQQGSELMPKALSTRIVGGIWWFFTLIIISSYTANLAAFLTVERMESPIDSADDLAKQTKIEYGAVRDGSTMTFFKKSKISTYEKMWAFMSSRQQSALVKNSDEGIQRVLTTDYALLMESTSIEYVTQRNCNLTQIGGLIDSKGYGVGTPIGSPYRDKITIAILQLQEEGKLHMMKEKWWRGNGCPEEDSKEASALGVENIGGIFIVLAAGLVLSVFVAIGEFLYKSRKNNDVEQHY

SMILES: N[C@@H](C[C@@]1(C(=O)O)CC2OCC(O)C(O)C2O1)C(=O)O (single isomer, unassigned) [2,4-epi-neoDH, 2,4-epi-neodysiherbaine]
- recovery of glutamate-evoked currents after analog application, GluR6a ([1]; 30 μM analog): current amplitudes recovered more slowly
- reduction of glutamate-induced currents from GluR6a receptors ([1]; 30 μM analog): ~30%
- IC50 ([1]; 10 mM glutamate in continued presence of analog, read-out: IC50 inhibition of glutamate-evoked currents, GluR6a): 74000 nM
- agonist activity: analog-evoked currents from GluR6a receptors (words) [1]: failed to elicit detectable current; also recorded: antagonist (or possibly a very weak partial agonist); also recorded: fails to activate GluR5 or GluR6 receptors, even at 100 μM
- agonist activity: analog-evoked currents from GluR6a receptors (words) ([1]; listed as 2,4-epineoDH): fails to activate
- inhibition of currents from GluR4(i) receptors [2]: failed to inhibit

SMILES: N[C@@H](C[C@@]1(C(=O)O)CC2OCC(O)C(O)C2O1)C(=O)O (single isomer, unassigned) [4-epi-neoDH, 4-epi-neodysiherbaine]
- recovery of glutamate-evoked currents after analog application, GluR6a ([1]; 30 μM analog): only exhibited a transient desensitization
- agonist activity: analog-evoked currents from GluR6a receptors (words) [1]: evoked small but detectable currents; also recorded: elicits large currents; also recorded: activates
- ED50, fold lower than that of 2,4-epi-neoDH ([3]; i.c.v. injection, mice): > 6 fold

SMILES: NC(CC1(C(=O)O)CC2OCC(O)C(O)C2O1)C(=O)O (stereo not drawn) [8,9-epi-neoDH, 8,9-epi-neodysiherbaine]
- convulsive behavior ([3]; high doses): fails to elicit convulsive behavior even at high doses

SMILES: N[C@@H](C[C@]1(C(=O)O)C[C@H]2OC[C@@H](O)C[C@H]2O1)C(=O)O [8-deoxy-neoDH]
- Ki [4]: 2 nM

SMILES: N[C@@H](C[C@]1(C(=O)O)C[C@H]2OCCC[C@H]2O1)C(=O)O [MSVIII-19, 8,9-dideoxy-neoDH]
- Ki [5]: 128 nM

From patent US7973075B2, “Kainate receptor-selective epimeric analogs of dysiherbaine” (priority 2007, dated 2011)
